The values below come from DBAASP.

One may read the MIC as the lowest concentration found to suppress growth. Low readings indicate a more susceptible organism, high ones a less susceptible organism.

Values after ≈ are worked out from the molar mass of the structure shown. Values joined by “and” are separate entries in the source; they are usually repeats but may differ in a detail not shown here. Equal entries are not always repeated.

Some test systems named below: Escherichia coli 1005; Candida albicans; Listeria monocytogenes; Salmonella typhimurium; Escherichia coli O157; Escherichia coli UB1005; Corynebacterium xerosis; Streptococcus mitis.
Common to all, as to assay: ≥ marks a high value that may be exact or a test limit, other limits are often not marked, values filed in µg/mL are converted to µM
The subject of assay [1] is Staphylococcus aureus ATCC 25923.
Assay [2] relates to Candida krusei CGMCC 2.1857.
The subject of assay [3] is Staphylococcus aureus ATCC 29213.
Assay [4] concerns Salmonella enterica subsp. enterica serovar Pullorum ATCC 7913.
Assay [5] concerns Salmonella enterica subsp. enterica serovar Typhimurium ATCC 14028.
In assay [6] the test system is Staphylococcus epidermidis ATCC 12228.
The test system of assay [7] is Candida tropicalis CGMCC 2.1975.
Assay [8] concerns Staphylococcus aureus ATCC 43300.
Assay [9] relates to Candida parapsilosis CGMCC 2.3989.
In assay [10] the test system is Escherichia coli ATCC 25404.
In assay [11] the test system is Micrococcus luteus ATCC 10420.
The subject of assay [12] is Staphylococcus epidermidis ATCC 9709.
In assay [13] the test system is Pseudomonas aeruginosa ATCC 15422.
Assay [14] deals with Candida albicans ATCC 10231.
In assay [15] the test system is Enterococcus faecalis ATCC 29212.
Assay [16] deals with Escherichia coli ATCC 25922.
Assay [17] deals with Staphylococcus epidermidis KCTC 1917.
Assay [18] relates to Legionella pneumophila Lens.
Assay [19] has as its system Salmonella enterica subsp. enterica serovar Typhimurium ATCC 14028s.
Assay [20] concerns Streptococcus pneumoniae ATCC 49619.
The subject of assay [21] is Staphylococcus epidermidis C621.
In assay [22] the test system is Pseudomonas aeruginosa K799.
Assay [23] relates to Streptococcus pyogenes ATCC 19615.

As to `NC(=O)[C@H](Cc1ccccc1)NC(=O)[C@H](Cc1ccccc1)NC(=O)[C@H](CCCN=C(N)N)NC(=O)[C@H](CCCN=C(N)N)NC(=O)[C@H](Cc1ccccc1)NC(=O)[C@H](CCCN=C(N)N)NC(=O)[C@H](CCCN=C(N)N)NC(=O)[C@H](Cc1ccccc1)NC(=O)[C@@H](N)Cc1ccccc1` [FFRRFRRFF], the MIC in assay [1] is 4 µM (≈ 5.51 µg/mL); in assay [2] it was 4 µM (≈ 5.51 µg/mL); in assay [3], 8 µM (≈ 11 µg/mL); in assay [4] it was at least 32 µM; in assay [5], 4 µM (≈ 5.51 µg/mL); in [6] it was 4 µM (≈ 5.51 µg/mL). In addition, the MIC in [7] was 4 µM (≈ 5.51 µg/mL); in assay [8], 4 µM (≈ 5.51 µg/mL); against Escherichia coli 1005 it was 8 µM (≈ 11 µg/mL); in the assay with Candida albicans, 11.3 µM (≈ 15.6 µg/mL); in [9] it was at least 64 µM.
Take `CC(C)C[C@H](NC(=O)[C@H](CC(C)C)NC(=O)[C@H](Cc1cnc[nH]1)NC(=O)[C@H](CO)NC(=O)[C@H](CC(C)C)NC(=O)[C@H](C)NC(=O)[C@H](CCCCN)NC(=O)[C@H](Cc1c[nH]c2ccccc12)NC(=O)[C@H](CC(C)C)NC(=O)[C@H](C)NC(=O)CNC(=O)[C@H](CC(C)C)NC(=O)[C@@H](N)Cc1ccccc1)C(=O)O` [FLGALWKALSHLL]: the MIC in [10] is at least 64 µM; in [1] it was 4 µM (≈ 5.88 µg/mL); in assay [11] it was 4 µM (≈ 5.88 µg/mL); in the assay on Listeria monocytogenes, 8 µM (≈ 11.8 µg/mL); in the assay with Salmonella typhimurium, at least 64 µM; in the assay with Escherichia coli O157, at least 64 µM. Further, the MIC in [12] stood at 4 µM (≈ 5.88 µg/mL).
Take `CC(C)C[C@H](NC(=O)CNC(=O)[C@H](Cc1ccc(O)cc1)NC(=O)[C@H](Cc1cnc[nH]1)NC(=O)[C@@H]1CCCN1C(=O)[C@H](CC(C)C)NC(=O)[C@H](CCC(=O)O)NC(=O)[C@H](Cc1ccccc1)NC(=O)[C@H](C)NC(=O)[C@H](CO)NC(=O)[C@@H](N)CCCCN)C(=O)O` [KSAFELPHYGL]: the MIC is at least 500 µM in [13]; above 500 µM in [14]; 252 µM and 205 µM and 184 µM in [15]; above 500 µM in assay [16]; at least 250 µM in [17].
`CC[C@H](C)[C@H](NC(=O)[C@H](CC(C)C)NC(=O)CNC(=O)[C@H](CCCCN)NC(=O)[C@@H](NC(=O)[C@@H](NC(=O)[C@H](CCC(=O)O)NC(=O)[C@@H](NC(=O)[C@H](Cc1ccccc1)NC(=O)[C@H](CCCCN)NC(=O)[C@H](C)NC(=O)[C@@H](NC(=O)[C@@H](NC(=O)[C@H](CC(=O)O)NC(=O)[C@H](C)NC(=O)[C@@H](N)CCSC)C(C)C)[C@@H](C)CC)C(C)C)[C@@H](C)CC)C(C)C)C(=O)N[C@@H](CC(=O)O)C(=O)N[C@@H](CCC(N)=O)C(=O)N[C@@H](Cc1ccccc1)C(=O)N[C@H](C(=O)N[C@@H](CCC(N)=O)C(=O)N[C@@H](CCCCN)C(=O)O)[C@@H](C)O` [MADVIAKFVEIVKGLIDQFTQK] registered an MIC in assay [18] of 5.01 µM (≈ 12.5 µg/mL).
On to `CC[C@H](C)[C@H](NC(=O)[C@H](Cc1ccccc1)NC(=O)[C@H](CC(=O)O)NC(=O)[C@@H](NC(=O)[C@H](C)NC(=O)[C@H](CCCCN)NC(=O)[C@H](CCCCN)NC(=O)[C@@H](NC(=O)[C@H](CC(C)C)NC(=O)[C@H](CC(=O)O)NC(=O)[C@@H](NC(=O)[C@@H](NC(=O)[C@H](Cc1ccccc1)NC(=O)[C@H](CCC(N)=O)NC(=O)[C@@H](N)CCSC)[C@@H](C)CC)[C@@H](C)O)[C@@H](C)CC)C(C)C)C(=O)N[C@@H](CCCCN)C(=O)NCC(=O)N[C@@H](CC(C)C)C(=O)N[C@@H](Cc1ccccc1)C(=O)NCC(=O)N[C@@H](CC(N)=O)C(=O)N[C@@H](CCCCN)C(=O)O` [MQFITDLIKKAVDFIKGLFGNK], for which the MIC in assay [18] stood at 1.23 µM (≈ 3.11 µg/mL). This MIC lies about 4.1-fold lower than the previous one.
For the compound `CC[C@H](C)[C@H](NC(=O)[C@H](CCCN=C(N)N)NC(=O)[C@H](CCCN=C(N)N)NC(=O)[C@@H](NC(=O)[C@@H](NC(=O)[C@@H](N)CCCN=C(N)N)[C@@H](C)CC)[C@@H](C)CC)C(=O)N[C@@H](CCCN=C(N)N)C(=O)N[C@@H](CCCN=C(N)N)C(=O)N[C@H](C(=O)N[C@H](C(=O)N[C@@H](CCCN=C(N)N)C(N)=O)[C@@H](C)CC)[C@@H](C)CC` [RIIRRIRRIIR], the MIC is 32 µM (≈ 48.6 µg/mL) in assay [1]; 4 µM (≈ 6.08 µg/mL) in assay [2]; 64 µM (≈ 97.3 µg/mL) in assay [3]; 16 µM (≈ 24.3 µg/mL) in assay [4]; 16 µM (≈ 24.3 µg/mL) in assay [5]; 16 µM and 32 µM in assay [16]. The MIC in assay [6] was 16 µM (≈ 24.3 µg/mL); in assay [7], 1 µM (≈ 1.52 µg/mL); in assay [8], 16 µM (≈ 24.3 µg/mL); against Escherichia coli 1005, 8 µM (≈ 12.2 µg/mL); against Candida albicans it was 8 µM (≈ 12.2 µg/mL); in assay [9], at least 64 µM.
As to `CC[C@H](C)[C@H](NC(=O)[C@@H](NC(=O)[C@@H](NC(=O)[C@@H](NC(=O)[C@@H]1CCCN1C(=O)[C@H](CS)NC(=O)[C@H](CCCN=C(N)N)NC(=O)[C@H](CCCN=C(N)N)NC(=O)[C@@H](N)CCCN=C(N)N)[C@@H](C)CC)C(C)C)C(C)C)C(=O)N[C@@H](CCCN=C(N)N)C(=O)N[C@H](C(=O)N[C@@H](CS)C(=O)N[C@@H](CCCN=C(N)N)C(=O)N[C@@H](CCCN=C(N)N)C(=O)O)C(C)C` [RRRCPIVVIRVCRR], the MIC in [1] is above 35.9 µM; in assay [15], 35.9 µM (≈ 64 µg/mL); in assay [19], at least 35.9 µM; with Escherichia coli UB1005 it was 4.49 µM (≈ 8 µg/mL); with Corynebacterium xerosis, 0.281 µM (≈ 0.5 µg/mL); in assay [20], at least 35.9 µM. Further, the MIC in the assay on Listeria monocytogenes was 1.12 µM (≈ 2 µg/mL); in assay [21], 8.98 µM (≈ 16 µg/mL); against Streptococcus mitis, 0.281 µM (≈ 0.5 µg/mL); in assay [22], at least 35.9 µM; in assay [23], 8.98 µM (≈ 16 µg/mL).
For the compound `CC[C@H](C)[C@H](NC(=O)[C@@H](NC(=O)[C@@H](NC(=O)[C@@H]1CCCN1C(=O)[C@H](CS)NC(=O)[C@H](CC(C)C)NC(=O)[C@H](CCCN=C(N)N)NC(=O)[C@H](CCCN=C(N)N)NC(=O)[C@@H](N)CCCN=C(N)N)[C@@H](C)CC)C(C)C)C(=O)N[C@@H](CCCN=C(N)N)C(=O)N[C@H](C(=O)N[C@@H](CS)C(=O)N[C@@H](CCCN=C(N)N)C(=O)N[C@@H](CCCN=C(N)N)C(=O)O)C(C)C` [RRRLCPIVIRVCRR], the MIC in assay [1] is above 35.6 µM; in assay [15] it was 17.8 µM (≈ 32 µg/mL); in assay [19], 17.8 µM (≈ 32 µg/mL); in the assay on Escherichia coli UB1005 it was 2.23 µM (≈ 4 µg/mL); in the assay on Corynebacterium xerosis, 0.278 µM (≈ 0.5 µg/mL); in assay [20], at least 35.6 µM. Also, the minimum inhibitory concentration (MIC) against Listeria monocytogenes turned out to be 0.557 µM (≈ 1 µg/mL); in [21], 4.45 µM (≈ 8 µg/mL); against Streptococcus mitis it was 0.557 µM (≈ 1 µg/mL); in assay [22], 17.8 µM (≈ 32 µg/mL); in assay [23], 4.45 µM (≈ 8 µg/mL).
